Laboratory results from publication PMC3145970, “Specific CLK Inhibitors from a Novel Chemotype for Regulation of Alternative Splicing” (Chemistry & Biology, 2011).
Where two headings read alike, the source gives them in different places.

Columns and labels:
Experiment in all cases: Thermal stability shift assay
Type in all cases: binding
[1] = target: AKT3 (Homo sapiens, UniProt Q9Y243); conditions: read-out: Tm shift AKT3
Experimental: (§1) Thermal denaturation experiments were carried out in an Mx3005p real-time PCR machine (Agilent) using a protein concentration of 2 μM and an inhibitor concentration of 10 μM. Samples were buffered in 10 mM HEPES (pH 7.5), 500 mM NaCl and a 1:1000 dilution of SyproOrange (Invitrogen). The assay and data evaluation were carried out as described ([Bullock et al., 2005])

[2] = target: CDKL1 (Homo sapiens, UniProt Q00532); conditions: read-out: Tm shift CDKL1
Experimental: as §1

[3] = target: CaMK1d (Homo sapiens, UniProt Q8IU85); conditions: read-out: Tm shift CaMK1d
Experimental: as §1

[4] = target: T1, DRAK1 (Homo sapiens, UniProt Q9UEE5); conditions: read-out: Tm shift DRAK1
T1 construct: purchased in-house (SGC Oxford thermal shift panel)
T1 sequence (Q9UEE5 1-414): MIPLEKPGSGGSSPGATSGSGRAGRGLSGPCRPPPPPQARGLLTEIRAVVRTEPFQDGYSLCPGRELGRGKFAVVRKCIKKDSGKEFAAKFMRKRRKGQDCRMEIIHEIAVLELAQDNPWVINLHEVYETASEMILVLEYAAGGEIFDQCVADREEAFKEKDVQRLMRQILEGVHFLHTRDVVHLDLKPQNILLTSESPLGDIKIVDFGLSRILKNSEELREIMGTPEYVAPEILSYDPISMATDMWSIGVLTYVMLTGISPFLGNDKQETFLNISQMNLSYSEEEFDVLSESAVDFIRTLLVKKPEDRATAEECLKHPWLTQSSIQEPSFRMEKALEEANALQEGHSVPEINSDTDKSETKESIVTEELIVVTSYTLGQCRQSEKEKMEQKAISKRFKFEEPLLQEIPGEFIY
Experimental: as §1

[5] = target: T2, DRAK2 (Homo sapiens, UniProt O94768); conditions: read-out: Tm shift DRAK2
T2 construct: purchased in-house (SGC Oxford thermal shift panel)
T2 sequence (O94768 1-372): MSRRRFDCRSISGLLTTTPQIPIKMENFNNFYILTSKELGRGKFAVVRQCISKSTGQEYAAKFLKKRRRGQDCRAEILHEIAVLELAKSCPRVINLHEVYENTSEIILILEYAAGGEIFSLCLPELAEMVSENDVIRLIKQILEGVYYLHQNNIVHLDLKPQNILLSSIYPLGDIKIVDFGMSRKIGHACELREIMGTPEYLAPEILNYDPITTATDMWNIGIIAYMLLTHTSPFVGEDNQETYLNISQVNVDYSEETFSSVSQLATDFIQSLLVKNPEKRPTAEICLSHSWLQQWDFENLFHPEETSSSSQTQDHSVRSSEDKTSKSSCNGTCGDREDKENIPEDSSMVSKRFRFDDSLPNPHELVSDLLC
Experimental: as §1

[6] = target: T3, JNK2 (Homo sapiens, UniProt P45984); conditions: read-out: Tm shift JNK2
T3 construct: purchased in-house (SGC Oxford thermal shift panel)
Experimental: as §1

[7] = target: T4, MSSK1 (Homo sapiens, UniProt Q9UPE1); conditions: read-out: Tm shift MSSK1
T4 construct: purchased in-house (SGC Oxford thermal shift panel)
Experimental: as §1

[8] = target: T5, PBK (Homo sapiens, UniProt Q96KB5); conditions: read-out: Tm shift PBK
T5 construct: purchased in-house (SGC Oxford thermal shift panel)
T5 sequence (Q96KB5 1-322): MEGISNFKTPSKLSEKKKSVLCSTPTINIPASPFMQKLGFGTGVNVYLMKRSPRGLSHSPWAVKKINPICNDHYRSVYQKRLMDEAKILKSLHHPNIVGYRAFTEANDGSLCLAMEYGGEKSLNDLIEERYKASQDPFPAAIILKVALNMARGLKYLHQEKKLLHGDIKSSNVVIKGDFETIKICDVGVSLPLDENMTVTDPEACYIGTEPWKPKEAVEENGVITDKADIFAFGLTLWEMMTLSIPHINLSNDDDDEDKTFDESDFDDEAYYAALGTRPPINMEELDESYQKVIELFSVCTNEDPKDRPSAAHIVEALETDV
Experimental: as §1

[9] = target: T6, PCTAIRE1 (Homo sapiens, UniProt Q00536); conditions: read-out: Tm shift PCTAIRE1
T6 construct: purchased in-house (SGC Oxford thermal shift panel)
Experimental: as §1

[10] = target: T7, PKCz (Homo sapiens, UniProt Q05513); conditions: read-out: Tm shift PKCz
T7 sequence (Q05513 1-592): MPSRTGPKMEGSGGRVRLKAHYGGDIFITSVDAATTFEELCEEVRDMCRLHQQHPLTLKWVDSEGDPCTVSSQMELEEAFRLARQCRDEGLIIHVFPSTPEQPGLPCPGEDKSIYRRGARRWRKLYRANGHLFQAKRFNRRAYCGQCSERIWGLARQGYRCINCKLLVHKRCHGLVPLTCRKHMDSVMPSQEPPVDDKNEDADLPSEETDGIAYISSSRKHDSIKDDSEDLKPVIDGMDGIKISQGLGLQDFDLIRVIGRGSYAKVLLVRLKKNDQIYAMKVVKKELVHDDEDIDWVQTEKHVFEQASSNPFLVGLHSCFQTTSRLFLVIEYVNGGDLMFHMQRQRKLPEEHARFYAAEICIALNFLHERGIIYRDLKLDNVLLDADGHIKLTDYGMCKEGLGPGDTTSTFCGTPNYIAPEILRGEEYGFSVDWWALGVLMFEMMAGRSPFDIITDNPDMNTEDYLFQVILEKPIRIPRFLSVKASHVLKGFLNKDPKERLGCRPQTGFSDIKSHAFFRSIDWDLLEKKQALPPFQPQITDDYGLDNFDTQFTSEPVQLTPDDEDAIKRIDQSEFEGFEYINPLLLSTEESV
Experimental: as §1

[11] = target: PKN2 (Homo sapiens, UniProt Q16513); conditions: read-out: Tm shift PKN2
Experimental: as §1

[12] = target: T8, RSK3~C (Homo sapiens, UniProt Q15349); conditions: read-out: Tm shift RSK3~C
T8 construct: RSK3~C 4.5 8.9 0.7 0.4 0.5 0.1 0.4
Experimental: as §1

[13] = target: SLK (Homo sapiens, UniProt Q9H2G2); conditions: read-out: Tm shift SLK
Experimental: as §1

[14] = target: STK33 (Homo sapiens, UniProt Q9BYT3); conditions: read-out: Tm shift STK33
Experimental: as §1

[15] = target: VRK2 (Homo sapiens, UniProt Q86Y07); conditions: read-out: Tm shift VRK2
Experimental: as §1

[16] = target: ZAK (Homo sapiens, UniProt Q9NYL2); conditions: read-out: Tm shift ZAK
Experimental: as §1

Chain of CaMK1d (Q8IU85 whole entry): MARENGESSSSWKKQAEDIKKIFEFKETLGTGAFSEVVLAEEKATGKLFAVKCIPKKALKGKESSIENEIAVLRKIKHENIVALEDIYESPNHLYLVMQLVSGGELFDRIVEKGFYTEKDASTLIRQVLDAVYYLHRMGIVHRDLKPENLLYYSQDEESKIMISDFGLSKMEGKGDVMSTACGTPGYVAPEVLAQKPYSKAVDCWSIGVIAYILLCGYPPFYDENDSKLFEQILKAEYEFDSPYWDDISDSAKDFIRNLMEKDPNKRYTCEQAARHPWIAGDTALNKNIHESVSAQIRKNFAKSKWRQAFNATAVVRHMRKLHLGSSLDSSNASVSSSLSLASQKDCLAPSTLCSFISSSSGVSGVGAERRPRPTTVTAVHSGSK
T6 sequence (Q00536 whole entry): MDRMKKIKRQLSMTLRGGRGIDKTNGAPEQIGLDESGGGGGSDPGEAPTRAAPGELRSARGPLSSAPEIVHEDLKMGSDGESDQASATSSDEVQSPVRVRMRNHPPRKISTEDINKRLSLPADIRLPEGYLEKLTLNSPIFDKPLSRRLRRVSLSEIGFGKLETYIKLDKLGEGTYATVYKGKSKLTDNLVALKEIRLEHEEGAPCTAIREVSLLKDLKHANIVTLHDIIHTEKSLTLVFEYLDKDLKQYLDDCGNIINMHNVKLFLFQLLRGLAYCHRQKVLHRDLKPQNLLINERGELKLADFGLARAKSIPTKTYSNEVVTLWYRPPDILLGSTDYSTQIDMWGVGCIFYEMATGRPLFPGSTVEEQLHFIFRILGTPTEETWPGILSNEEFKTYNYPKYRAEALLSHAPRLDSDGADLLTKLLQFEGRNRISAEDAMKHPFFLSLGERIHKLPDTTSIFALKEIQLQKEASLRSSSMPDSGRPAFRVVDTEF
Chain of CDKL1 (Q00532 whole entry): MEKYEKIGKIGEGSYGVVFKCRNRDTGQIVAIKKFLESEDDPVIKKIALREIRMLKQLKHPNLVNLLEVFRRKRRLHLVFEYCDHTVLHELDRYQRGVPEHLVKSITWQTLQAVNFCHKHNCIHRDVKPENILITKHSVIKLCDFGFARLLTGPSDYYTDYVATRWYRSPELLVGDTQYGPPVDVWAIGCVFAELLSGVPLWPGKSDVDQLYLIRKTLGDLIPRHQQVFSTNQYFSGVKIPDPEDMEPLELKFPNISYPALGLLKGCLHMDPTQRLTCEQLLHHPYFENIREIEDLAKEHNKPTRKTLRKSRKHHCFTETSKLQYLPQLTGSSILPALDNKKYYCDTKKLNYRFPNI
T3 sequence (P45984 whole entry): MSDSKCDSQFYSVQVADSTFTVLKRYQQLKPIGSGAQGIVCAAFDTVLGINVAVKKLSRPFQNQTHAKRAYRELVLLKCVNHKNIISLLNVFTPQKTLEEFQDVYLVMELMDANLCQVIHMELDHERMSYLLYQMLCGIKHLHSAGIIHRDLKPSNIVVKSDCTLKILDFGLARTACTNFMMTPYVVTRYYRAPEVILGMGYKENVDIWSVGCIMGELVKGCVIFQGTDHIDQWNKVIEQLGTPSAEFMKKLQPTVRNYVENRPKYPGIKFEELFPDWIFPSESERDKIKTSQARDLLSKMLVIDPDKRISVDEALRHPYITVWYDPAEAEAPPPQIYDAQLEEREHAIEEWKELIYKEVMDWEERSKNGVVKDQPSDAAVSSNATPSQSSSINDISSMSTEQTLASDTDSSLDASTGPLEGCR
Chain of PKN2 (Q16513 whole entry): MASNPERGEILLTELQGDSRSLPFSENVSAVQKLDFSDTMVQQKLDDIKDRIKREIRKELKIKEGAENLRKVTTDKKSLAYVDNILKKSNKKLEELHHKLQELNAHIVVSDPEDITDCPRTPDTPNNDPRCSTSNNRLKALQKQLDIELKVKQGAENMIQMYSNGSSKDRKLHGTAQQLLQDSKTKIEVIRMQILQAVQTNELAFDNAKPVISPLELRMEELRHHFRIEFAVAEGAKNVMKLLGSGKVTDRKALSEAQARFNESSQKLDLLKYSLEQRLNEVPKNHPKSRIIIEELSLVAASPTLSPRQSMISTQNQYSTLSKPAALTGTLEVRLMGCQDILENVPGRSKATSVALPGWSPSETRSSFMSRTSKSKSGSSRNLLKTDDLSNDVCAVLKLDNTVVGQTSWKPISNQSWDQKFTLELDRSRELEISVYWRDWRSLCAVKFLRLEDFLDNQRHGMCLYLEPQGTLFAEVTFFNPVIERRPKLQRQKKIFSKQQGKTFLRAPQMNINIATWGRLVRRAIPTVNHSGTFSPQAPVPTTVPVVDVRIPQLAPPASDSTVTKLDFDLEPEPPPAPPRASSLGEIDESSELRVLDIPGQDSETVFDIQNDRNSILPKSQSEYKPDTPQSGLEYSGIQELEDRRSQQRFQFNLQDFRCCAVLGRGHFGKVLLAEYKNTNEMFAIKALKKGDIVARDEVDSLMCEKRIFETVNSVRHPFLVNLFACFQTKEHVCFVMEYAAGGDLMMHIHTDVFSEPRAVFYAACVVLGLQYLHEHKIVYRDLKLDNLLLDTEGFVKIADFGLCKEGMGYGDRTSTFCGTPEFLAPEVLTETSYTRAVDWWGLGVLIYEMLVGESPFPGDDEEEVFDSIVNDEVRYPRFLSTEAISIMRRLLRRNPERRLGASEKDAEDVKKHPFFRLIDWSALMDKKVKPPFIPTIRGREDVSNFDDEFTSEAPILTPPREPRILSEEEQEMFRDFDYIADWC
T4 sequence (Q9UPE1 whole entry): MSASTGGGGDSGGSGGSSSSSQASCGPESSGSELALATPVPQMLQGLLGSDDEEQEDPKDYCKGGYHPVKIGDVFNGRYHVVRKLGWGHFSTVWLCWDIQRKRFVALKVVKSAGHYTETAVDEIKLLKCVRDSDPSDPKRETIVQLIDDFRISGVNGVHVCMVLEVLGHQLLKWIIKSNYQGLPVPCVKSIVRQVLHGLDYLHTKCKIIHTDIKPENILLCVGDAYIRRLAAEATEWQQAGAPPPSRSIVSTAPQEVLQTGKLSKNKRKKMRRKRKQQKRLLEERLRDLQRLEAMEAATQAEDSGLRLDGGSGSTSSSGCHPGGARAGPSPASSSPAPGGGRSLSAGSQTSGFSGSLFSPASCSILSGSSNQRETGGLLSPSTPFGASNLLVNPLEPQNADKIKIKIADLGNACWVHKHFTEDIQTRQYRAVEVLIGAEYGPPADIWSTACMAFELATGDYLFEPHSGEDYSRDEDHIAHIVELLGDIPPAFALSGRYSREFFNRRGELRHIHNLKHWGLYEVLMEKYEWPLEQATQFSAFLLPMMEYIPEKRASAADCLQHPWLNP
Chain of ZAK (Q9NYL2 whole entry): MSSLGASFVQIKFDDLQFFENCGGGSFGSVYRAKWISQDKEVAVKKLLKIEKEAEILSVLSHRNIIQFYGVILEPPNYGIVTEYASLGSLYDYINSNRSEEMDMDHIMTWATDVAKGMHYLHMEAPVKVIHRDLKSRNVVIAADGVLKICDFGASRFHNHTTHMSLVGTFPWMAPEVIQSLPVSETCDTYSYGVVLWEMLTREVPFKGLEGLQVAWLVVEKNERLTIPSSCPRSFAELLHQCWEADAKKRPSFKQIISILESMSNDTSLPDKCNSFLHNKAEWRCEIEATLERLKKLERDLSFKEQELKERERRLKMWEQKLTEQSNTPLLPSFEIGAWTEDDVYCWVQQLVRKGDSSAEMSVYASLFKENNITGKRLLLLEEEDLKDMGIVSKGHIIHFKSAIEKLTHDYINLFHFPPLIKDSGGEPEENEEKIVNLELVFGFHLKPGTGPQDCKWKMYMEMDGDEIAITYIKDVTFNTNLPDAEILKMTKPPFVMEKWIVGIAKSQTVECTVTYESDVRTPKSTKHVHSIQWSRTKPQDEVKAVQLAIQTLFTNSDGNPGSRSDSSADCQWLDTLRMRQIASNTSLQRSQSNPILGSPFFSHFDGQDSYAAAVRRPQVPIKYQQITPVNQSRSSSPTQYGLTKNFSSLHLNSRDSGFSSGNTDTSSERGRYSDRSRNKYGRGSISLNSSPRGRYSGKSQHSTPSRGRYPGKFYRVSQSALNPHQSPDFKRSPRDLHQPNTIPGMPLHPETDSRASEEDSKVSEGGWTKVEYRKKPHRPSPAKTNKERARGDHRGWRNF
Chain of AKT3 (Q9Y243 whole entry): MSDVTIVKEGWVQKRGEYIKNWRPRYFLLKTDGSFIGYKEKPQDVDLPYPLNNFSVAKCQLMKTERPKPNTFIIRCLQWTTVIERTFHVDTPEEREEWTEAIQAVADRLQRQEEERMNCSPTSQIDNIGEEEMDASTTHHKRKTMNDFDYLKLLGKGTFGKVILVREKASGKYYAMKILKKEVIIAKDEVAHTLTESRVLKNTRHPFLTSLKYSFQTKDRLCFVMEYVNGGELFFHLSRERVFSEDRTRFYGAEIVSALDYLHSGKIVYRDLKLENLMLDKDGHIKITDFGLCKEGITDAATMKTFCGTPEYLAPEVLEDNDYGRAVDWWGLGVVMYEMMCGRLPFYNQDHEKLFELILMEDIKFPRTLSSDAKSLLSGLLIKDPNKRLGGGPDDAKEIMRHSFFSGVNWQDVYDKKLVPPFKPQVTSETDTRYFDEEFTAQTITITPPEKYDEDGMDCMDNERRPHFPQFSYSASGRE
Chain of STK33 (Q9BYT3 whole entry): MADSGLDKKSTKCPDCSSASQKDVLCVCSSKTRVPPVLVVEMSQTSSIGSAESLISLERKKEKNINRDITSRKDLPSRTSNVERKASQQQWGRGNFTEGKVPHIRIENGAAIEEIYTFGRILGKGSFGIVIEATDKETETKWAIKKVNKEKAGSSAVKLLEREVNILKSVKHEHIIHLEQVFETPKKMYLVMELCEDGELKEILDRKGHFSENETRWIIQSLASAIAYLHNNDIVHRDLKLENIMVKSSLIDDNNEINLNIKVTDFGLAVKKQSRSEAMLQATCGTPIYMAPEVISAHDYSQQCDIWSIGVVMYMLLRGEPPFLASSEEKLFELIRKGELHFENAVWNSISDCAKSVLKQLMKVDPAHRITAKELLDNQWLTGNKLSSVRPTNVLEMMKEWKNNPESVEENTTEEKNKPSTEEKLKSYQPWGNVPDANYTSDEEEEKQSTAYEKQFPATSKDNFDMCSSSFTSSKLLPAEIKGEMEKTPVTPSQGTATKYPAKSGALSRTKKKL

ΔTm at 10 µM ([1]; inhibitor 10 μM) | ΔTm at 10 µM ([2]; inhibitor 10 μM) | ΔTm at 10 µM ([3]; inhibitor 10 μM) | ΔTm at 10 µM ([4]; inhibitor 10 μM) | ΔTm at 10 µM ([5]; inhibitor 10 μM) | ΔTm at 10 µM ([6]; inhibitor 10 μM) | ΔTm at 10 µM ([7]; inhibitor 10 μM) | ΔTm at 10 µM ([8]; inhibitor 10 μM) | ΔTm at 10 µM ([9]; inhibitor 10 μM) | ΔTm at 10 µM ([10]; inhibitor 10 μM) | ΔTm at 10 µM ([11]; inhibitor 10 μM) | ΔTm at 10 µM ([12]; inhibitor 10 μM) | ΔTm at 10 µM ([13]; inhibitor 10 μM) | ΔTm at 10 µM ([14]; inhibitor 10 μM) | ΔTm at 10 µM ([15]; inhibitor 10 μM) | ΔTm at 10 µM ([16]; inhibitor 10 μM) | Structure (SMILES) | ΔTm at 10 µM [1] | ΔTm at 10 µM [2] | ΔTm at 10 µM [3] | ΔTm at 10 µM [4] | other results
– | – | – | – | – | – | – | – | – | – | – | – | – | – | – | – | CCOC(=O)c1c(C(C#N)=CN)c2ccc(Cl)c(Cl)c2n1C (mixture of isomers) [KH-CB20, (E/Z)-Ethyl 3-(2-Amino-1-Cyanovinyl)-6,7-Dichloro-1-Methyl-1H-Indole-2-Carboxylate] | -0.3 °C | 0.2 °C | -0.6 °C | 2.6 °C | ΔTm at 10 µM [5]: 1.5 °C; ΔTm at 10 µM [6]: 0.5 °C; ΔTm at 10 µM [7]: 0.5 °C; ΔTm at 10 µM [8]: -0.1 °C; ΔTm at 10 µM [9]: 0.1 °C; ΔTm at 10 µM [10]: 0.1 °C; ΔTm at 10 µM [11]: 0.1 °C; ΔTm at 10 µM [12]: 0.4 °C; ΔTm at 10 µM [13]: 0.1 °C; ΔTm at 10 µM [14]: 0.8 °C; ΔTm at 10 µM [15]: 0.1 °C; ΔTm at 10 µM [16]: -0.1 °C
-0.2 °C | 0.6 °C | -0.4 °C | -0.2 °C | 0 °C | -0.2 °C | 0.3 °C | -0.9 °C | 0.4 °C | 0.4 °C | -0.5 °C | 0.1 °C | -0.7 °C | 0.7 °C | 0.2 °C | -0.4 °C | CCOC(=O)c1c(C(C#N)=CN(C)C)c2ccc(Cl)c(Cl)c2n1C (mixture of isomers) [compound 2, (E/Z)-Ethyl 6,7-Dichloro-3-[1-Cyano-2-(Dimethylamino)Vinyl]-1-Methyl-1H-Indole-2-Carboxylate] | – | – | – | – | –
– | – | – | – | – | – | – | – | – | – | – | – | – | – | – | – | CCOC(=O)c1c(/C(C#N)=C\N)c2ccc(Cl)c(Cl)c2n1C [KH-CB19, (E)-Ethyl 3-(2-Amino-1-Cyanovinyl)-6,7-Dichloro-1-Methyl-1H-Indole-2-Carboxylate] | -0.2 °C | 0 °C | 0.1 °C | 2.5 °C | ΔTm at 10 µM [5]: 1.7 °C; ΔTm at 10 µM [6]: -0.2 °C; ΔTm at 10 µM [7]: 0.2 °C; ΔTm at 10 µM [8]: -0.3 °C; ΔTm at 10 µM [9]: 0.4 °C; ΔTm at 10 µM [10]: -0.2 °C; ΔTm at 10 µM [11]: 0.6 °C; ΔTm at 10 µM [12]: 0.7 °C; ΔTm at 10 µM [13]: 0 °C; ΔTm at 10 µM [14]: 0.3 °C; ΔTm at 10 µM [15]: -0.1 °C; ΔTm at 10 µM [16]: -0.3 °C
0.1 °C | 0.2 °C | -0.3 °C | 1.7 °C | 0.9 °C | -0.5 °C | 0.3 °C | -0.4 °C | 0.4 °C | 0.5 °C | 2.3 °C | 0.5 °C | -0.6 °C | 1.1 °C | 0.1 °C | -0.2 °C | Cn1c2c(Cl)c(Cl)ccc2c2c(C#N)c[nH]c(=O)c21 [compound 3, 7,8-Dichloro-9-Methyl-1-Oxo-2,9-Dihydro-1H-Pyrido[3,4-b]Indole-4-Carbonitrile] | – | – | – | – | –

Structure (SMILES) | ΔTm at 10 µM ([1]; inhibitor 10 μM) | ΔTm at 10 µM ([2]; inhibitor 10 μM) | ΔTm at 10 µM ([3]; inhibitor 10 μM) | ΔTm at 10 µM ([4]; inhibitor 10 μM) | ΔTm at 10 µM ([5]; inhibitor 10 μM) | ΔTm at 10 µM ([6]; inhibitor 10 μM) | ΔTm at 10 µM ([7]; inhibitor 10 μM) | ΔTm at 10 µM ([8]; inhibitor 10 μM) | ΔTm at 10 µM ([9]; inhibitor 10 μM) | ΔTm at 10 µM ([10]; inhibitor 10 μM) | ΔTm at 10 µM ([11]; inhibitor 10 μM) | ΔTm at 10 µM ([12]; inhibitor 10 μM) | ΔTm at 10 µM ([13]; inhibitor 10 μM) | ΔTm at 10 µM ([14]; inhibitor 10 μM) | ΔTm at 10 µM ([15]; inhibitor 10 μM) | ΔTm at 10 µM ([16]; inhibitor 10 μM) | ΔTm at 10 µM [1] | ΔTm at 10 µM [2] | ΔTm at 10 µM [3] | ΔTm at 10 µM [4] | other results
NC1=NC(=O)/C(=C2\CCNC(=O)c3[nH]c(Br)cc32)N1 [Hymenialdisine, hymenialdisine, reference compound] | 1.3 °C | 0.6 °C | 0 °C | 14.8 °C | 13 °C | -0.1 °C | 0.3 °C | -0.4 °C | 0.7 °C | -0.2 °C | 0.8 °C | 4.5 °C | 2.1 °C | 3.9 °C | 0.8 °C | 1.7 °C | – | – | – | – | –
